Target: T1, human MDM2 (GST-hMDM2 aa 1-188), interaction with biotinylated-p53 (aa 1-83) (Homo sapiens, UniProt Q00987)
T1 construct: Amino acid residues 1-188 of human MDM2 were expressed; made in house; host or cells: Escherichia coli
Experiment: Homogenous Time-Resolved Fluorescence Assay (HTRF1 assay), inhibition of HDM2-p53 interaction
Format: binding
Conditions: 2.5 nM GST-hMDM2, 5 nM biotinylated-p53, 200 mM KF
Description: Homogenous Time-Resolved Fluorescence Assay (HTRF1 Assay)
Residues 1-83 of human p53 were expressed as an amino-terminal AviTag™-TrxA-6xHis fusion protein (biotinylated p53) in E. coli. Each protein was purified from cell paste by affinity chromatography.
Specifically, 10 uL of GST-hMDM2 was incubated with 10 ul of diluted compound (various concentrations, serially diluted) in 10% DMSO for 20 minutes at room temperature. 20 uL of biotinylated-p53 was added to the GST-hMDM2+ compound mixture, and then incubated at room temperature for 60 min. 10 uL of detection buffer consisting of SA-XLent, anti-GST cryptate antibody and KF was added to GST-hMDM2, biotinylated-p53 and compound reaction and left at room temperature to reach equilibrium for >4 hrs. The final concentration of DMSO in the reaction was 2%. Time-resolved fluorescence readings were measured on a microplate multilabel reader. Percentage of inhibition was calculated relative to nutlin-3.

T1 sequence (Q00987 1-188): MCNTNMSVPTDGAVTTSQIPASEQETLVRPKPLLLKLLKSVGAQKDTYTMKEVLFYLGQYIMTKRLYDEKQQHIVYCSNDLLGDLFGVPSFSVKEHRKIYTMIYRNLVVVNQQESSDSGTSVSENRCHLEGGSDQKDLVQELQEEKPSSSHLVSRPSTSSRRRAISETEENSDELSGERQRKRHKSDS

Structure (SMILES)	IC50 [nM]
N#Cc1cc(F)cc([C@H]2OC(CC(=O)O)C(=O)N(CC3CC3)[C@@H]2c2ccc(Cl)cc2)c1 (single isomer, unassigned) [Example 98]	1800
CC[C@H](C(=O)OC(C)(C)C)N1C(=O)[C@H](CC(=O)O)O[C@H](c2cccc(Cl)c2)[C@H]1c1ccc(Cl)cc1 (single isomer, unassigned) [Example 30]	1800
O=C(O)CC1O[C@H](c2cncc(Cl)c2)[C@@H](c2ccc(Cl)cc2)N(CC2CC2)C1=O (single isomer, unassigned) [Example 87]	1800
O=C(O)CC1O[C@H](c2cccc(Cl)c2)[C@@H](c2ccc(Br)cc2)N(CC2CC2)C1=O (single isomer, unassigned) [Example 67]	17500
O=C(O)CC1O[C@H](c2cccc(Cl)c2)[C@@H](c2ccc(Cl)nc2)N(CC2CC2)C1=O (single isomer, unassigned) [Example 71]	3100
O=C(O)C[C@H]1O[C@H](c2cccc(Cl)c2)[C@@H](c2ccc(Cl)cc2)NC1=O [Example 35, 2-((2R,5R,6R)-6-(3-Chlorophenyl)-5-(4-chlorophenyl)-3-oxomorpholin-2-yl)acetic acid]	13000
O=C(O)CC1O[C@H](c2cccc(F)c2)[C@@H](c2ccc(Cl)cc2)N(CC2CC2)C1=O (single isomer, unassigned) [Example 85]	1600
N#Cc1cc(F)cc([C@H]2OC(CC(=O)O)C(=O)N(CC3CC3)[C@@H]2c2ccc(Cl)cc2)c1 (single isomer, unassigned) [Example 99]	1100
O=C(O)CC1O[C@H](c2cccc(OC(F)(F)F)c2)[C@@H](c2ccc(Cl)cc2)N(CC2CC2)C1=O (single isomer, unassigned) [Example 95]	33500
C[C@H](C1CCCCC1)N1C(=O)[C@H](CC(=O)O)O[C@H](c2cccc(Cl)c2)[C@H]1c1ccc(Cl)cc1 (single isomer, unassigned) [Example 18, 2-((2S,5R,6R)-6-(3-chlorophenyl)-5-(4-chlorophenyl)-4-((R)-1-cyclohexylethyl)-3-oxomorpholin-2-yl)acetic acid or 2-((2S,5R,6R)-6-(3-Chlorophenyl)-5-(4-chlorophenyl)-4-((S)-1-cyclohexylethyl)-3-oxomorpholin-2-yl)acetic acid]	100
O=C(O)C[C@@H]1O[C@H](c2cccc(Cl)c2)[C@@H](c2cc3ccccc3[nH]2)N(CC2CC2)C1=O (single isomer, unassigned) [Example 2, 2-((2S,5R,6R)-6-(3-Chlorophenyl)-4-(cyclopropylmethyl)-5-(1H-indol-2-yl)-3-oxomorpholin-2-yl)acetic acid or 2-((2R,5R,6R)-6-(3-Chlorophenyl)-4-(cyclopropylmethyl)-5-(1H-indol-2-yl)-3-oxomorpholin-2-yl)acetic acid]	31400
Cc1cccc([C@H]2OC(CC(=O)O)C(=O)N(CC3CC3)[C@@H]2c2ccc(Cl)cc2)c1 (single isomer, unassigned) [Example 102]	6500
O=C(O)/C=C1\O[C@H](c2cccc(Cl)c2)[C@@H](c2ccc(Cl)cc2)N(CC2CC2)C1=O (single isomer, unassigned; isomer 1) [Example 51, (Z)-2-((5R,6R)-6-(3-Chlorophenyl)-5-(4-chlorophenyl)-4-(cyclopropylmethyl)-3-oxomorpholin-2-ylidene)acetic acid or (E)-2-((5R,6R)-6-(3-Chlorophenyl)-5-(4-chlorophenyl)-4-(cyclopropylmethyl)-3-oxomorpholin-2-ylidene)acetic acid (Isomer 1)]	600
COc1ccc([C@@H]2[C@@H](c3cccc(Cl)c3)OC(CC(=O)O)C(=O)N2CC2CC2)cn1 (single isomer, unassigned) [Example 74]	4500
C=CCN1C(=O)[C@H](CC(=O)O)O[C@H](c2cccc(Cl)c2)[C@H]1c1ccc(Cl)cc1 [Example 47, 2-((2S,5R,6R)-4-Allyl-6-(3-chlorophenyl)-5-(4-chlorophenyl)-3-oxomorpholin-2-yl)acetic acid]	800
O=C(O)CC1O[C@H](c2cccc(Cl)c2)[C@@H](c2ccc(C(F)(F)F)nc2)N(CC2CC2)C1=O (single isomer, unassigned) [Example 81]	15700
COc1cccc([C@H]2OC(CC(=O)O)C(=O)N(CC3CC3)[C@@H]2c2ccc(Cl)cc2)c1 (single isomer, unassigned) [Example 90]	3500
O=C1[C@@H](Cc2nnn[nH]2)O[C@H](c2cccc(Cl)c2)[C@@H](c2ccc(Cl)cc2)N1CC1CC1.O=C1[C@H](Cc2nnn[nH]2)O[C@H](c2cccc(Cl)c2)[C@@H](c2ccc(Cl)cc2)N1CC1CC1 (mixture of isomers) [Example 50, (2S,5R,6R)-6-(3-Chlorophenyl)-5-(4-chlorophenyl)-4-(cyclopropylmethyl)-2-((tetrazol-5-yl)methyl)morpholin-3-one and (2R,5R,6R)-6-(3-Chlorophenyl)-5-(4-chlorophenyl)-4-(cyclopropylmethyl)-2-((tetrazol-5-yl)methyl)morpholin-3-one]	700
COc1ccc([C@@H]2[C@@H](c3cccc(Cl)c3)OC(CC(=O)O)C(=O)N2CC2CC2)cc1 (single isomer, unassigned) [Example 75]	3700
O=C(O)C[C@H]1O[C@H](c2cccc(Cl)c2)[C@@H](c2ccc(OC(F)(F)F)cc2)N(CC2CC2)C1=O [Example 65, 2-((2R,5R,6R)-6-(3-Chlorophenyl)-4-(cyclopropylmethyl)-3-oxo-5-(4-(trifluoromethoxy)phenyl)morpholin-2-yl)acetic acid]	1100
O=C(O)CC1O[C@H](c2cc(Cl)ccc2F)[C@@H](c2ccc(Cl)cc2)N(CC2CC2)C1=O (single isomer, unassigned) [Example 100]	1100
O=C(O)C[C@@H]1O[C@H](c2cc(Cl)cc(-c3cncnc3)c2)[C@@H](c2ccc(Cl)cc2)N(CC2CC2)C1=O (single isomer, unassigned) [Example 109]	2800

Next, values leading:

IC50 [nM]	Structure (SMILES)
600	O=C(O)C[C@@H]1O[C@H](c2cccc(Cl)c2)[C@@H](c2ccc(Cl)cc2F)N(CC2CC2)C1=O [Example 54, 2-((2S,5R,6R)-5-(4-Chloro-2-fluorophenyl)-6-(3-chlorophenyl)-4-(cyclopropylmethyl)-3-oxomorpholin-2-yl)acetic acid]
600	O=C(O)C[C@@H]1O[C@H](c2cccc(Cl)c2)[C@@H](c2ccc(Cl)cc2)N(CCC(F)(F)F)C1=O [Example 11, 2-((2S,5R,6R)-6-(3-Chlorophenyl)-5-(4-chlorophenyl)-3-oxo-4-(3,3,3-trifluoropropyl)morpholin-2-yl)acetic acid]
500	O=C(O)C[C@H]1O[C@H](c2cccc(Cl)c2)[C@@H](c2ccc(Cl)cc2)N(CC2CCCC2)C1=O [Example 28, 2-((2R,5R,6R)-6-(3-Chlorophenyl)-5-(4-chlorophenyl)-4-(cyclopentylmethyl)-3-oxomorpholin-2-yl)acetic acid]
300	O=C(O)CC1O[C@H](c2cccc(Cl)c2)[C@@H](c2ccc(Cl)c(F)c2)N(CC2CC2)C1=O (single isomer, unassigned) [Example 77]
600	C[C@H](c1ccccc1)N1C(=O)[C@H](CC(=O)O)O[C@H](c2cccc(Cl)c2)[C@H]1c1ccc(Cl)cc1 [Example 25, 2-((2S,5R,6R)-6-(3-Chlorophenyl)-5-(4-chlorophenyl)-3-oxo-4-((R)-1-phenylethyl)morpholin-2-yl)acetic acid]
700	CCCCN1C(=O)[C@H](CC(=O)O)O[C@H](c2cccc(Cl)c2)[C@H]1c1ccc(Cl)cc1 [Example 40, 2-((2S,5R,6R)-4-Butyl-6-(3-chlorophenyl)-5-(4-chlorophenyl)-3-oxomorpholin-2-yl)acetic acid]
800	CCN1C(=O)[C@H](CC(=O)O)O[C@H](c2cccc(Cl)c2)[C@H]1c1ccc(Cl)cc1 [Example 45, 2-((2S,5R,6R)-6-(3-Chlorophenyl)-5-(4-chlorophenyl)-4-ethyl-3-oxomorpholin-2-yl)acetic acid]
800	O=C(O)CC1O[C@H](c2cccc(F)c2)[C@@H](c2ccc(Cl)cc2)N(CC2CC2)C1=O (single isomer, unassigned) [Example 86]
100	CC[C@@H](C(=O)OC(C)(C)C)N1C(=O)[C@@H](CC(=O)O)O[C@H](c2cccc(Cl)c2)[C@H]1c1ccc(Cl)cc1 (single isomer, unassigned) [Example 32]
300	O=C(O)C[C@@H]1O[C@H](c2cccc(Cl)c2)[C@@H](c2ccc(Cl)cc2)N(C2CCCCC2)C1=O [Example 16, 2-((2S,5R,6R)-6-(3-Chlorophenyl)-5-(4-chlorophenyl)-4-cyclohexyl-3-oxomorpholin-2-yl)acetic acid]
100	CC[C@@H](C(=O)OC(C)(C)C)N1C(=O)[C@H](CC(=O)O)O[C@H](c2cccc(Cl)c2)[C@H]1c1ccc(Cl)cc1 (single isomer, unassigned) [Example 31]
600	O=C(O)CC1O[C@H](c2ccnc(Cl)c2)[C@@H](c2ccc(Cl)cc2)N(CC2CC2)C1=O (single isomer, unassigned) [Example 91]
600	Cc1ccc([C@@H]2[C@@H](c3cccc(Cl)c3)O[C@H](CC(=O)O)C(=O)N2CC2CC2)cc1 [Example 61, 2-((2R,5R,6R)-6-(3-Chlorophenyl)-4-(cyclopropylmethyl)-3-oxo-5-(p-tolyl)morpholin-2-yl)acetic acid]
500	O=C(O)CC1O[C@H](c2cc(Cl)cc(Br)c2)[C@@H](c2ccc(Cl)cc2)N(CC2CC2)C1=O (single isomer, unassigned) [Example 104]
